Structures can show the parent of a compound that is named as a salt.
What was measured:
Conditions in all cases: averaged IC50
[1] = biological target: His-tagged recombinant human MER cytoplasmic domain (Homo sapiens (Human), UniProt Q12866); experiment: MER Enzyme Assay (LanthaScreen Eu Kinase Binding, TR-FRET)
Description: (§1) Compounds of Formula I were screened for their ability to inhibit MER kinase using Invitrogen's LanthaScreen™ Eu Kinase Binding technology. […] After a 60-minute incubation at 22° C., the reaction was measured using a PerkinElmer EnVision multimode plate reader via TR-FRET dual wavelength detection, and the percent of control (POC) was calculated using a ratiometric emission factor. […] The POC values are fit to a 4 parameter logistic curve and the IC50 value is point where the curve crosses 50 POC.

[2] = biological target: His-tagged recombinant human AXL cytoplasmic domain (Homo sapiens (Human), UniProt P30530); experiment: AXL Enzyme Assay (LanthaScreen Eu Kinase Binding, TR-FRET)
Description: as §1, with “AXL” for “MER”

[3] = biological target: GST-tagged recombinant human TYRO3 kinase domain (Homo sapiens (Human), UniProt Q06418); experiment: TYRO3 Enzyme Assay (LanthaScreen Eu Kinase Binding, TR-FRET)
Description: as §1, with “TYRO3” for “MER”, “(POC)” for “(POC) was”, “were” for “are”

His-tagged recombinant human AXL cytoplasmic domain, sequence (P30530 473-894): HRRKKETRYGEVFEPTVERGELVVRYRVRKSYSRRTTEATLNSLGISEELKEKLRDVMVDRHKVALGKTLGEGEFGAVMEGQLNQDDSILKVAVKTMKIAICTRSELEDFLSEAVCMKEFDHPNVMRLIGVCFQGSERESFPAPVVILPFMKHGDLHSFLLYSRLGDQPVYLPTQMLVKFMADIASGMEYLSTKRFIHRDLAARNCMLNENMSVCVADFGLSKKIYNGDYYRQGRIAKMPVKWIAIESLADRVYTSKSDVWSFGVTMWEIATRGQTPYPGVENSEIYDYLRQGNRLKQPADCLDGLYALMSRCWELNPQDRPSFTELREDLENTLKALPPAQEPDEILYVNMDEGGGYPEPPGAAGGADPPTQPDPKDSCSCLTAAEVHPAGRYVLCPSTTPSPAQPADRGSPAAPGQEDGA
His-tagged recombinant human MER cytoplasmic domain, sequence (Q12866 527-999): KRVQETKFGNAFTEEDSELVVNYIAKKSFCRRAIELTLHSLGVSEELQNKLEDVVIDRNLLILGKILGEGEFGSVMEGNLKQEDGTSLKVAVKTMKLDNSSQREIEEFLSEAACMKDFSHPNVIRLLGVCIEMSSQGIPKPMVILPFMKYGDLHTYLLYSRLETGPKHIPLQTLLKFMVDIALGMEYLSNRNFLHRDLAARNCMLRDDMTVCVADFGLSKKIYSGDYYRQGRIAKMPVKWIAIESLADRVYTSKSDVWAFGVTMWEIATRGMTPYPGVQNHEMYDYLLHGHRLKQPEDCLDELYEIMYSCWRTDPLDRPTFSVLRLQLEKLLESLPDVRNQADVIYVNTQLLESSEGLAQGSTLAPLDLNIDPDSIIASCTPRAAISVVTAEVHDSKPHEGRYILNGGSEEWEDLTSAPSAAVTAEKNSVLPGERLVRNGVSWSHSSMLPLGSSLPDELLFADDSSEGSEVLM
GST-tagged recombinant human TYRO3 kinase domain, sequence (Q06418 518-790): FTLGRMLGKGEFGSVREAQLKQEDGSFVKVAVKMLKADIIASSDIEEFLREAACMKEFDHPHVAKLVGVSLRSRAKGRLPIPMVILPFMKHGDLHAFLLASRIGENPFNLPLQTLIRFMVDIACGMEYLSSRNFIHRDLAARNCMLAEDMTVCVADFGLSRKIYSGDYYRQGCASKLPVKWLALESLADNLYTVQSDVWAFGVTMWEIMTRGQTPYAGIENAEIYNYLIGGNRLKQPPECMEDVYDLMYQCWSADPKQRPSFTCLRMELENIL

Row | Compound | IC50 [1] | IC50 [2] | IC50 [3]
1 | CNc1cc2c(cn1)c(-c1cnn(C)c1)nn2[C@H]1CC[C@@H](Oc2cccnc2F)CC1 [Example 146, 1-((1s,4s)-4-((2-fluoropyridin-3-yl)oxy)cyclohexyl)-N-methyl-3-(1-methyl-1H-pyrazol-4-yl)-1H-pyrazolo[4,3-c]pyridin-6-amine] | < 10 nM | < 10 nM | 
2 | CNc1cc2c(cn1)c(-c1cnn(C)c1)nn2[C@H]1CC[C@@H](Oc2cccnc2C)CC1 [Example 135, N-methyl-3-(1-methyl-1H-pyrazol-4-yl)-1-((1s,4s)-4-((2-methylpyridin-3-yl)oxy)cyclohexyl)-1H-pyrazolo[4,3-c]pyridin-6-amine] | < 10 nM | < 10 nM | 
3 | CNc1cc2c(cn1)c(-c1cnn(C(C)(C)C#N)c1)nn2[C@H]1CC[C@@H](Oc2ccccc2F)CC1 [Example 394, 2-(4-(1-((1s,4s)-4-(2-fluorophenoxy)cyclohexyl)-6-(methylamino)-1H-pyrazolo[4,3-c]pyridin-3-yl)-1H-pyrazol-1-yl)-2-methylpropanenitrile] | < 10 nM | < 10 nM | 
4 | Cn1cc(-c2nn([C@H]3CC[C@@H](Oc4cccc(F)c4F)CC3)c3cc(Nc4ccccc4)ncc23)cn1 [Example 486, 1-((1s,4s)-4-(2,3-difluorophenoxy)cyclohexyl)-3-(1-methyl-1H-pyrazol-4-yl)-N-phenyl-1H-pyrazolo[4,3-c]pyridin-6-amine] |  | 1000 to 10000 nM | 
5 | CNc1cc2c(cn1)c(-c1ccc(CN3CCN(C)CC3)cc1)nn2[C@H]1CC[C@@H](Oc2cnn(C)c2)CC1 [Example 232, N-methyl-1-((1s,4s)-4-((1-methyl-1H-pyrazol-4-yl)oxy)cyclohexyl)-3-(4-((4-methylpiperazin-1-yl)methyl)phenyl)-1H-pyrazolo[4,3-c]pyridin-6-amine] | < 10 nM | < 10 nM | 
6 | CCNc1cc2c(cn1)c(C1CCOC1)nn2[C@H]1CC[C@@H](Oc2nccc(C(F)(F)F)c2F)CC1 (stereo partly shown) [Example 323, N-ethyl-1-((1s,4s)-4-((3-fluoro-4-(trifluoromethyl)pyridin-2-yl)oxy)cyclohexyl)-3-(tetrahydrofuran-3-yl)-1H-pyrazolo[4,3-c]pyridin-6-amine] | < 10 nM | < 10 nM | 
7 | CNc1cc2c(cn1)c(-c1cnn(C)c1)nn2[C@H]1CC[C@@H](Oc2ccc(F)cc2F)CC1 [Example 358, 1-((1s,4s)-4-(2,4-difluorophenoxy)cyclohexyl)-N-methyl-3-(1-methyl-1H-pyrazol-4-yl)-1H-pyrazolo[4,3-c]pyridin-6-amine] | < 10 nM | < 10 nM | 
8 | CNc1cc2c(cn1)c(-c1cnn(C)c1)nn2[C@H]1CC[C@@H](Oc2cccc(F)c2)CC1 [Example 354, 1-((1s,4s)-4-(3-fluorophenoxy)cyclohexyl)-N-methyl-3-(1-methyl-1H-pyrazol-4-yl)-1H-pyrazolo[4,3-c]pyridin-6-amine] | < 10 nM | < 10 nM | 
9 | CCNc1cc2c(cn1)c(-c1cnc(=O)n(C)c1)nn2C1CCC(Oc2nccc(C(F)(F)F)c2F)CC1 (stereo not shown) [Example 256, 5-(6-(ethylamino)-1-((1s,4s)-4-((3-fluoro-4-(trifluoromethyl)pyridin-2-yl)oxy)cyclohexyl)-1H-pyrazolo[4,3-c]pyridin-3-yl)-1-methylpyrimidin-2(1H)-one] | < 10 nM | < 10 nM | 
10 | Cn1cc(-c2nn([C@H]3CC[C@@H](Oc4ncccc4C(F)(F)F)CC3)c3cc(Nc4ccccc4)ncc23)cn1 [Example 306, 3-(1-methyl-1H-pyrazol-4-yl)-N-phenyl-1-((1s,4s)-4-((3-(trifluoromethyl)pyridin-2-yl)oxy)cyclohexyl)-1H-pyrazolo[4,3-c]pyridin-6-amine] |  | 1000 to 10000 nM | 
11 | CCNc1cc2c(cn1)c(-c1cnn(C)c1)nn2[C@H]1CC[C@@H](Oc2ccc(C(=O)NC)cc2F)CC1 [Example 460, 4-(((1s,45)-4-(6-(ethylamino)-3-(1-methyl-1H-pyrazol-4-yl)-1H-pyrazolo[4,3-c]pyridin-1-yl)cyclohexyl)oxy)-3-fluoro-N-methylbenzamide] |  | < 10 nM | 
12 | Cn1cc(-c2nn([C@H]3CC[C@@H](Oc4ccccc4F)CC3)c3cc(NCCC4CC4)ncc23)cn1 [Example 402, N-(2-cyclopropylethyl)-1-((1s,4s)-4-(2-fluorophenoxy)cyclohexyl)-3-(1-methyl-1H-pyrazol-4-yl)-1H-pyrazolo[4,3-c]pyridin-6-amine] |  | 1000 to 10000 nM | 
13 | CCn1nc(O[C@H]2CC[C@@H](n3nc(-c4ccc(CN5CCN(C)CC5)cc4)c4cnc(NC)cc43)CC2)ccc1=O [Example 79, 2-ethyl-6-(((1s,4s)-4-(6-(methylamino)-3-(4-((4-methylpiperazin-1-yl)methyl)phenyl)-1H-pyrazolo[4,3-c]pyridin-1-yl)cyclohexyl)oxy)pyridazin-3(2H)-one] |  | < 10 nM | 
14 | CNc1cc2c(cn1)c(-c1cnn(C)c1)nn2[C@H]1CC[C@@H](Oc2cccc(C(F)(F)F)n2)CC1 [Example 174, N-methyl-3-(1-methyl-1H-pyrazol-4-yl)-1-((1s,4s)-4-((6-(trifluoromethyl)pyridin-2-yl)oxy)cyclohexyl)-1H-pyrazolo[4,3-c]pyridin-6-amine] |  |  | 1000 to 10000 nM
15 | CCNc1cc2c(cn1)c(-c1cnn(C)c1)nn2[C@H]1CC[C@@H](Oc2cnn(C)c2C)CC1 [Example 226, 1-((1s,4s)-4-((1,5-dimethyl-1H-pyrazol-4-yl)oxy)cyclohexyl)-N-ethyl-3-(1-methyl-1H-pyrazol-4-yl)-1H-pyrazolo[4,3-c]pyridin-6-amine] |  |  | 1000 to 10000 nM
16 | CNc1cc2c(cn1)c(-c1cnn(C)c1)nn2[C@H]1CC[C@@H](Oc2ccc(=O)n(CC(C)C)n2)CC1 [Example 16, 2-isobutyl-6-(((1s,4s)-4-(3-(1-methyl-1H-pyrazol-4-yl)-6-(methylamino)-1H-pyrazolo[4,3-c]pyridin-1-yl)cyclohexyl)oxy)pyridazin-3(2H)-one] |  |  | 1000 to 10000 nM
17 | CNc1cc2c(cn1)c(-c1ccc(F)cc1)nn2[C@H]1CC[C@@H](Oc2ccccn2)CC1 [Example 118, 3-(4-fluorophenyl)-N-methyl-1-((1s,4s)-4-(pyridin-2-yloxy)cyclohexyl)-1H-pyrazolo[4,3-c]pyridin-6-amine] |  |  | 1000 to 10000 nM
18 | CNc1cc2c(cn1)c(-c1cnn(C)c1)nn2[C@H]1CC[C@@H](Oc2nn(C)c(=O)cc2C)CC1 [Example 6, 2,5-dimethyl-6-(((1s,4s)-4-(3-(1-methyl-1H-pyrazol-4-yl)-6-(methylamino)-1H-pyrazolo[4,3-c]pyridin-1-yl)cyclohexyl)oxy)pyridazin-3(2H)-one] |  |  | 1000 to 10000 nM
19 | CNc1cc2c(cn1)c(-c1cnn(C)c1)nn2[C@H]1CC[C@@H](Oc2nn(C)c(=O)c(C)c2C)CC1 [Example 8, 2,4,5-trimethyl-6-(((1s,4s)-4-(3-(1-methyl-1H-pyrazol-4-yl)-6-(methylamino)-1H-pyrazolo[4,3-c]pyridin-1-yl)cyclohexyl)oxy)pyridazin-3(2H)-one hydrochloride] |  |  | 1000 to 10000 nM
20 | CNc1cc2c(cn1)c(-c1cnn(C)c1)nn2[C@H]1CC[C@@H](Oc2cccnn2)CC1 [Example 120, N-methyl-3-(1-methyl-1H-pyrazol-4-yl)-1-((1s,4s)-4-(pyridazin-3-yloxy)cyclohexyl)-1H-pyrazolo[4,3-c]pyridin-6-amine] |  |  | 1000 to 10000 nM
21 | CNc1cc2c(cn1)c(-c1cnn(C)c1)nn2[C@H]1CC[C@@H](Oc2ccc(F)cc2CN(C)C)CC1 [Example 370, 1-((1s,4s)-4-(2-((dimethylamino)methyl)-4-fluorophenoxy)cyclohexyl)-N-methyl-3-(1-methyl-1H-pyrazol-4-yl)-1H-pyrazolo[4,3-c]pyridin-6-amine] |  | < 10 nM | 
22 | CNc1cc2c(cn1)c(-c1cnn(C)c1)nn2[C@H]1CC[C@H](Oc2ccnc(C)c2)CC1 [Example 121, N-methyl-3-(1-methyl-1H-pyrazol-4-yl)-1-((1r,4r)-4-((2-methylpyridin-4-yl)oxy)cyclohexyl)-1H-pyrazolo[4,3-c]pyridin-6-amine] |  |  | 1000 to 10000 nM
23 | CNc1cc2c(cn1)c(-c1cnn(C)c1)nn2[C@H]1CC[C@@H](Oc2ccc(C(=O)NC(C)C)cc2)CC1 [Example 458, N-isopropyl-4-(((1s,4s)-4-(3-(1-methyl-1H-pyrazol-4-yl)-6-(methylamino)-1H-pyrazolo[4,3-c]pyridin-1-yl)cyclohexyl)oxy)benzamide] |  |  | 1000 to 10000 nM
24 | CNc1cc2c(cn1)c(-c1cnn(C)c1)nn2[C@H]1CC[C@@H](Oc2ccc(OC)nc2)CC1 [Example 130, 1-((1s,4s)-4-((6-methoxypyridin-3-yl)oxy)cyclohexyl)-N-methyl-3-(1-methyl-1H-pyrazol-4-yl)-1H-pyrazolo[4,3-c]pyridin-6-amine] |  |  | 1000 to 10000 nM
25 | Cn1cc(-c2nn([C@H]3CC[C@@H](Oc4ccc(=O)n(C)n4)CC3)c3cc(Nc4cccc(F)c4)ncc23)cn1 [Example 66] |  |  | < 10 nM
26 | CCNc1cc2c(cn1)c(-c1ccc(CN3CC(F)C3)cc1)nn2[C@H]1CC[C@@H](Oc2ccc(=O)n(C)n2)CC1 [Example 62, 6-(((1s,4s)-4-(6-(ethylamino)-3-(4-((3-fluoroazetidin-1-yl)methyl)phenyl)-1H-pyrazolo[4,3-c]pyridin-1-yl)cyclohexyl)oxy)-2-methylpyridazin-3(2H)-one] |  |  | 1000 to 10000 nM
